# In patent US10093713B2, “GIP-GLP-1 dual agonist compounds and methods” (priority 2013, dated 2018):
# Like-named read-outs stand apart in the source and are kept apart here. *1 amine or outer side, *2 acyl side, *3 side chain or, on linkers, in order; H or OH if unused. Where a SMILES comes first, the peptide text is derived from it. Side-chain parts run from the residue outwards. [ ]: non-standard residue; d: D form. The star is where a group is joined. C20 diacid = O=C(O)CCCCCCCCCCCCCCCCCCC(=O)*; C18 diacid = O=C(O)CCCCCCCCCCCCCCCCC(=O)*; γGlu = O=C(O)[C@H](CCC(=O)[*:2])N[*:1]; AEEA = NCCOCCOCC(=O)O; Aib = CC(C)(N)C(=O)O
# What was measured:
# human GIP R = biological target: T1, human GIP R (Homo sapiens, UniProt P48546); assay: Human GIP receptor (GIP R) activity assay, cAMP induction (AlphaScreen) in HEK293 cells; assay type: cell-based; details: read-out: hGIP-R cAMP EC50 average value
# T1 construct: expressed in transfected cells
# T1 sequence (P48546 22-466): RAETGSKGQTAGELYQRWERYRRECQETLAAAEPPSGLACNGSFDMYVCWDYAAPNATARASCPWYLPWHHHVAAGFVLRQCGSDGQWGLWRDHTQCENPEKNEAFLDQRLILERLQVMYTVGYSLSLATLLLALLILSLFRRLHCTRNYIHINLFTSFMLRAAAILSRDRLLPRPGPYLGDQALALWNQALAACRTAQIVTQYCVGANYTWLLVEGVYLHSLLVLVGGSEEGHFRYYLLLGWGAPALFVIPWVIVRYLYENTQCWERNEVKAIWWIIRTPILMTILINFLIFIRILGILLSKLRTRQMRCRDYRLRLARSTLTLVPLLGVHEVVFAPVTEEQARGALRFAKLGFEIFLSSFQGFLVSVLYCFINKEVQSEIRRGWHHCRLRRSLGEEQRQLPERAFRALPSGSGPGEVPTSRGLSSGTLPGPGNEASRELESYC
# How it was run: (§1)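 Stable HEK293 clones expressing human GIP R or GLP-1 R, seeded 1 day before; cells washed in Tyrode's buffer (10 mM HEPES, pH 7.4), stimulated, then lysed. cAMP measured by AlphaScreen bead competition (1 h, room temperature, dark). EC50 = concentration giving half-maximal cAMP elevation, from curves of absolute cAMP (nM) vs log concentration.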
# human GLP-1 R = biological target: T2, human GLP-1 R (Homo sapiens, UniProt P43220); assay: Human GLP-1 receptor (GLP-1 R) activity assay, cAMP induction (AlphaScreen) in HEK293 cells; assay type: cell-based
# T2 construct: expressed in transfected cells
# T2 sequence (P43220 24-463): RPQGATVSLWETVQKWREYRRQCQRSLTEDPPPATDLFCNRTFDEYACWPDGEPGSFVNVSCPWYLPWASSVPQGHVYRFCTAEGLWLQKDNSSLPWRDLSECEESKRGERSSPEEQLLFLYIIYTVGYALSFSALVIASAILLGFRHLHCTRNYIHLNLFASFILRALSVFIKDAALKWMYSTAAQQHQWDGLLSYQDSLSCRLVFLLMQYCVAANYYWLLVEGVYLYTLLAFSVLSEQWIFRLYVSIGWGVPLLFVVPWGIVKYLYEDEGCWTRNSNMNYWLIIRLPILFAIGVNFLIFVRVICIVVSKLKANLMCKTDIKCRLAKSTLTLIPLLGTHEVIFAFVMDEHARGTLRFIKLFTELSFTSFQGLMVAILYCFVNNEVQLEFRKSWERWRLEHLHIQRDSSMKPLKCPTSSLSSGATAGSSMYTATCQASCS
# How it was run: as §1
# [1] = Pharmacokinetics of selected compounds in mice; assay type: in vivo, C57BL/6J mice; details: male, C57BL/6J, mouse, plasma; for bioavailability: subcutaneous, AUCinf (s.c.)/AUCinf (i.v.)x100, values marked * capped to 100%
# Protocol: Pharmacokinetics of Selected Compounds in Mice
# C57BL/6J mice (males with a body weight of approximately 25 g) were given either a single subcutaneous (s.c.) bolus or a single intravenous (i.v.) bolus of each peptide to be tested.
# Following s.c. administration of the selected compounds (50, 100 or 200 nmol/kg), blood samples were drawn at 8 (eight) timepoints up to 72 hours post-dose. Following i.v. administration of the selected compounds (50, 100 or 200 nmol/kg), blood samples were drawn at 8 (eight) timepoints up to 48 hours post-dose. Blood samples were drawn by sublingual bleeding. The dosing vehicle was a phosphate buffer containing mannitol (pH 7.5).
# At each sampling time point, samples from two mice were drawn, i.e. 16 mice were included for each compound and each administration route. The mice were euthanized immediately after blood sampling by cervical dislocation. Plasma samples were analyzed after solid phase extraction (SPE) or protein precipitation followed by liquid chromatography mass spectrometry (LC-MS/MS). Mean plasma concentrations were used for calculation of the pharmacokinetic parameters using the non-compartmental approach in Phoenix WinNonlin 6.3. Plasma terminal elimination half-life (T½) was determined as […] where λz is the magnitude of the slope of the log linear regression of the log concentration versus time profile during the terminal phase. Bioavailability was determined as AUCinf (s.c.)/AUCinf (i.v.)×100, where AUCinf is the area under the plasma concentration−time curve extrapolated to infinity (AUCinf=AUClast+Clast/λz, where Clast is the last observed plasma concentration). Tmax is the post-dose time where the maximal plasma concentration was observed.
# [2] = Table 2, HEK293 cells expressing human GIP R
# [3] = Table 2a, secondary assay study
# [4] = Table 3, most comprehensive data
# [5] = Table 2, HEK293 cells expressing human GLP-1 R, read-out: hGLP1-R cAMP EC50 average value
# [6] = Table 2a, secondary assay study, read-out: hGLP1-R cAMP EC50 average value
# [7] = iv, single i.v. bolus, read-out: T½ terminal elimination half-life, i.v. (converted)
# [8] = Table 3, most comprehensive data, read-out: hGLP-1-R cAMP EC50 average value
# [9] = sc, single s.c. bolus, read-out: T½ terminal elimination half-life, s.c. (converted)
SMILES,EC50 (human GIP R; [2]),EC50 (human GIP R; [3]),EC50 (human GIP R; [4]),EC50 (human GLP-1 R; [5]),EC50 (human GLP-1 R; [6]),"half-life [1, 7]",bioavailability [1],"Tmax ([1]; sc, single s.c. bolus)",EC50 (human GLP-1 R; [8]),"half-life [1, 9]"
CC[C@H](C)[C@H](NC(=O)[C@H](CO)NC(=O)[C@H](Cc1ccc(O)cc1)NC(=O)[C@H](CC(=O)O)NC(=O)[C@H](CO)NC(=O)[C@@H](NC(=O)[C@H](Cc1ccccc1)NC(=O)[C@@H](NC(=O)CNC(=O)[C@H](CCC(=O)O)NC(=O)C(C)(C)NC(=O)[C@@H](N)Cc1ccc(O)cc1)[C@@H](C)O)[C@@H](C)O)C(=O)N[C@@H](Cc1ccc(O)cc1)C(=O)N[C@@H](CC(C)C)C(=O)N[C@@H](CC(=O)O)C(=O)N[C@@H](CCCCN)C(=O)N[C@@H](CCCCNC(=O)COCCOCCNC(=O)COCCOCCNC(=O)COCCOCCNC(=O)CC[C@H](NC(=O)CCCCCCCCCCCCCCCCCCC(=O)O)C(=O)O)C(=O)N[C@@H](C)C(=O)N[C@@H](CCC(N)=O)C(=O)N[C@@H](CCCNC(=N)N)C(=O)N[C@@H](C)C(=O)N[C@@H](Cc1ccccc1)C(=O)N[C@H](C(=O)N[C@@H](CCC(=O)O)C(=O)N[C@@H](Cc1c[nH]c2ccccc12)C(=O)N[C@@H](CC(C)C)C(=O)N[C@@H](CC(C)C)C(=O)N[C@@H](C)C(=O)N[C@@H](CCC(N)=O)C(=O)NCC(=O)N1CCC[C@H]1C(=O)N[C@@H](CO)C(=O)N[C@@H](CO)C(=O)NCC(=O)N[C@@H](C)C(=O)N1CCC[C@H]1C(=O)N1CCC[C@H]1C(=O)N1CCC[C@H]1C(=O)N[C@@H](CO)C(N)=O)C(C)C [Compound 8] (H-Y[Aib]EGTFTSDYSIYLDKK([AEEA-AEEA-AEEA-γGlu-C20 diacid])AQRAFVEWLLAQGPSSGAPPPS-NH2),5.3 pM,5 pM,5 pM,12 pM,12 pM,17.2 h,54%,8 h,,
CC[C@H](C)[C@H](NC(=O)[C@H](CO)NC(=O)[C@H](Cc1ccc(O)cc1)NC(=O)[C@H](CC(=O)O)NC(=O)[C@H](CO)NC(=O)[C@@H](NC(=O)[C@H](Cc1ccccc1)NC(=O)[C@@H](NC(=O)CNC(=O)[C@H](CCC(=O)O)NC(=O)[C@@H](C)NC(=O)[C@@H](N)Cc1ccc(O)cc1)[C@@H](C)O)[C@@H](C)O)C(=O)N[C@@H](Cc1ccc(O)cc1)C(=O)N[C@@H](CC(C)C)C(=O)N[C@@H](CC(=O)O)C(=O)N[C@@H](CCCCN)C(=O)N[C@@H](CCCCNC(=O)COCCOCCNC(=O)COCCOCCNC(=O)CC[C@H](NC(=O)CCCCCCCCCCCCCCCCCCC(=O)O)C(=O)O)C(=O)N[C@@H](C)C(=O)N[C@@H](CCC(N)=O)C(=O)N[C@@H](CCCNC(=N)N)C(=O)N[C@@H](C)C(=O)N[C@@H](Cc1ccccc1)C(=O)N[C@H](C(=O)N[C@@H](CCC(=O)O)C(=O)N[C@@H](Cc1c[nH]c2ccccc12)C(=O)N[C@@H](CC(C)C)C(=O)N[C@@H](CC(C)C)C(=O)N[C@@H](C)C(=O)N[C@@H](CCC(N)=O)C(=O)NCC(=O)N1CCC[C@H]1C(=O)N[C@@H](CO)C(=O)N[C@@H](CO)C(=O)NCC(=O)N[C@@H](C)C(=O)N1CCC[C@H]1C(=O)N1CCC[C@H]1C(=O)N1CCC[C@H]1C(=O)N[C@@H](CO)C(N)=O)C(C)C [Compound 30] (H-Y[dA]EGTFTSDYSIYLDKK([AEEA-AEEA-γGlu-C20 diacid])AQRAFVEWLLAQGPSSGAPPPS-NH2),15 pM,,17 pM,28 pM,,17.1 h,83%,8 h,35 pM,15.9 h
CC[C@H](C)[C@H](NC(=O)[C@H](CO)NC(=O)[C@H](Cc1ccc(O)cc1)NC(=O)[C@H](CC(=O)O)NC(=O)[C@H](CO)NC(=O)[C@@H](NC(=O)[C@H](Cc1ccccc1)NC(=O)[C@@H](NC(=O)CNC(=O)[C@H](CCC(=O)O)NC(=O)C(C)(C)NC(=O)[C@@H](N)Cc1ccc(O)cc1)[C@@H](C)O)[C@@H](C)O)C(=O)N[C@@H](C)C(=O)N[C@@H](CC(C)C)C(=O)N[C@@H](CCC(=O)O)C(=O)N[C@@H](CCCCN)C(=O)N[C@@H](CCCCNC(=O)COCCOCCNC(=O)COCCOCCNC(=O)CC[C@H](NC(=O)CCCCCCCCCCCCCCCCCCC(=O)O)C(=O)O)C(=O)N[C@@H](C)C(=O)N[C@@H](CCC(N)=O)C(=O)N[C@@H](CCCNC(=N)N)C(=O)N[C@@H](C)C(=O)N[C@@H](Cc1ccccc1)C(=O)N[C@H](C(=O)N[C@@H](CCC(=O)O)C(=O)N[C@@H](Cc1c[nH]c2ccccc12)C(=O)N[C@@H](CC(C)C)C(=O)N[C@@H](CC(C)C)C(=O)N[C@@H](C)C(=O)N[C@@H](CCC(N)=O)C(=O)NCC(=O)N1CCC[C@H]1C(=O)N[C@@H](CO)C(=O)N[C@@H](CO)C(=O)NCC(=O)N[C@@H](C)C(=O)N1CCC[C@H]1C(=O)N1CCC[C@H]1C(=O)N1CCC[C@H]1C(=O)N[C@@H](CO)C(N)=O)C(C)C [Compound 31] (H-Y[Aib]EGTFTSDYSIALEKK([AEEA-AEEA-γGlu-C20 diacid])AQRAFVEWLLAQGPSSGAPPPS-NH2),7 pM,,8 pM,16 pM,,11.7 h,88%,8 h,17 pM,15.1 h
CC[C@H](C)[C@H](NC(=O)[C@H](CO)NC(=O)[C@H](Cc1ccc(O)cc1)NC(=O)[C@H](CC(=O)O)NC(=O)[C@H](CO)NC(=O)[C@@H](NC(=O)[C@H](Cc1ccccc1)NC(=O)[C@@H](NC(=O)CNC(=O)[C@H](CCC(=O)O)NC(=O)C(C)(C)NC(=O)[C@@H](N)Cc1ccc(O)cc1)[C@@H](C)O)[C@@H](C)O)C(=O)N[C@@H](Cc1ccc(O)cc1)C(=O)N[C@@H](CC(C)C)C(=O)N[C@@H](CC(=O)O)C(=O)N[C@@H](CCCCN)C(=O)N[C@@H](CCCCNC(=O)COCCOCCNC(=O)COCCOCCNC(=O)CC[C@H](NC(=O)CCCCCCCCCCCCCCCCC(=O)O)C(=O)O)C(=O)N[C@@H](C)C(=O)N[C@@H](CCC(N)=O)C(=O)N[C@@H](CCCNC(=N)N)C(=O)N[C@@H](C)C(=O)N[C@@H](Cc1ccccc1)C(=O)N[C@H](C(=O)N[C@@H](CCC(=O)O)C(=O)N[C@@H](Cc1c[nH]c2ccccc12)C(=O)N[C@@H](CC(C)C)C(=O)N[C@@H](CC(C)C)C(=O)N[C@@H](C)C(=O)N[C@@H](CCC(N)=O)C(=O)NCC(=O)N1CCC[C@H]1C(=O)N[C@@H](CO)C(=O)N[C@@H](CO)C(=O)NCC(=O)N[C@@H](C)C(=O)N1CCC[C@H]1C(=O)N1CCC[C@H]1C(=O)N1CCC[C@H]1C(=O)N[C@@H](CO)C(N)=O)C(C)C [Compound 1] (H-Y[Aib]EGTFTSDYSIYLDKK([AEEA-AEEA-γGlu-C18 diacid])AQRAFVEWLLAQGPSSGAPPPS-NH2),5.5 pM,6 pM,6 pM,12 pM,15 pM,10.8 h,90%,6 h,15 pM,9.1 h
